{"source": "patent US20250339472A1", "about": "(priority 2024, published 2025)", "origin": "cited, not measured here", "key": {"[1]": {"biological_target": "acetylcholinesterase (Homo sapiens, UniProt P22303)", "sequence (P22303 32-614, species assumed)": "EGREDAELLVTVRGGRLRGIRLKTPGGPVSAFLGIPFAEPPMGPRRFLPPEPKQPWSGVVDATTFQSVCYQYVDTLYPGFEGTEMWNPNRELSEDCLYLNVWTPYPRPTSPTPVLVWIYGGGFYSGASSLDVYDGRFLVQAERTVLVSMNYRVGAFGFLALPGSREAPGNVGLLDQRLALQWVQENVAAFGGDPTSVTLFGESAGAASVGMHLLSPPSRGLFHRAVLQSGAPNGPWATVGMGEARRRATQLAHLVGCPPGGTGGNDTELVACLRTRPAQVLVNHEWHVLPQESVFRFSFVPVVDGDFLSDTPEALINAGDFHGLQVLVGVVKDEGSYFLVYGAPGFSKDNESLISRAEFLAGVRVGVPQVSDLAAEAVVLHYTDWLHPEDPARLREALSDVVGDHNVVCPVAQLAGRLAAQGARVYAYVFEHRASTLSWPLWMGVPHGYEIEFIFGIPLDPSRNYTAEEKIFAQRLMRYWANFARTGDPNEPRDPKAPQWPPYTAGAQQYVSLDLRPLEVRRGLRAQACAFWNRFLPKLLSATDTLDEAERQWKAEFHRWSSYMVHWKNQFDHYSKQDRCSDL"}, "[2]": {"conditions": "dog, in vivo"}}, "note": "Where two headings read alike, the source gives them in different places.", "data": [{"molecule": "COc1cc(/C=C/C(=O)CC(=O)/C=C/c2ccc(O)c(OC)c2)ccc1O", "note": "[Curcumin]", "values": [{"measurement": "inhibition of acetylcholinesterase activity", "setting": "[1]", "value": "inhibits"}]}, {"molecule": "CC1=C(/C=C/C(C)=C/C=C/C(C)=C/C=C/C=C(C)/C=C/C=C(C)/C=C/C2=C(C)C(=O)[C@@H](O)CC2(C)C)C(C)(C)C[C@H](O)C1=O", "note": "[Astaxanthin—AstaReal®, Astaxanthin]", "values": [{"measurement": "efficacy levels", "setting": "[2]", "value": 0.3, "unit": "mg/kg/day"}]}, {"molecule": "Hyaluronic Acid", "values": [{"measurement": "Safety levels", "setting": "more than 26 kg body weight", "value": "54 mg of HA per day"}, {"measurement": "Safety levels", "setting": "up to 26 kg body weight", "value": "27 mg of HA per day"}]}]}
